# Assay results taken from publication PMC12114619, “Nifuroxazide and 4-Hydroxybenzhydrazone Derivatives as New Antiparasitic (Trypanosoma cruzi and Leishmania mexicana) and Anti-Mycobacterium tuberculosis Agents” (Pharmaceutics, 2025).
# Assays:
# [1] = tested on: amastigotes of the L. major IR-173 strain; design: method as in PMID 35732232; details: read-out: IC50 against amastigotes of L. major IR-173; cited from earlier work
# [2] = tested on: intracellular amastigotes of the L. donovani 9515 strain; design: method as in PMID 35732232; details: read-out: IC50 against intracellular amastigotes of L. donovani 9515; cited from earlier work
# [3] = tested on: L. mexicana MHOM/MX/2017/UABJO17FCQEPS promastigotes; test: Leishmanicidal activity, L. mexicana promastigotes, FCQEPS isolate (MTT); type: cell-based, Leishmania mexicana; details: FCQEPS strain, 48 h
# Experimental: (§1) For leishmanicidal assays, the reference strain (MNYC/BZ/62/M379) and the isolate (MHOM/MX/2017/UABJO17FCQEPS) of L. mexicana were used. Promastigotes were cultured in RPMI 1640 medium supplemented with 10% FBS, 100 U/mL penicillin-100 […] streptomycin, and glutamine (2 mM). 100 µL parasites (5 × 10^5/mL) were added in a 96-well plate, and 100 µL of appropriate concentrations (0.78 to 200 µM) of each sample dissolved in DMSO and incubated for 48 h at 26 °C. Wells containing promastigotes with DMSO 0.2% were used as a negative control, and the reference drug glucantime was included as the positive control. The 3-(4,5-Dimethylthiazol-2-yl)-2,5-diphenyltetrazolium bromide (MTT) was used to measure metabolic activity. The IC50 values were calculated with the probit statistical tool. All samples were evaluated in triplicate in three independent experiments.
# [4] = tested on: L. mexicana MNYC/BZ/62/M379 promastigotes; test: Leishmanicidal activity, L. mexicana promastigotes, M379 strain (MTT); type: cell-based, Leishmania mexicana; details: 48 h
# Experimental: as §1
# [5] = tested on: J774.2 mouse macrophage cells; test: Cytotoxicity on macrophages (MTT); type: cell-based
# Experimental: (§2) Cytotoxicity was assessed on J774.2 mouse macrophage cells (ATCC® TIB-67, ATCC, Manassas, VA, USA). Cells were cultured in RPMI medium supplemented with 10% SFB, 100 U µg/mL penicillin-100 mg/mL streptomycin, and glutamine (2 mM) at 37 °C and in a 5% CO2 atmosphere. A known concentration of cells (1 × 10^6/mL) was incubated with the compounds at different concentrations (0.78 to 200 µM) for 48 h at 37 °C in a CO2 atmosphere (5%). Wells containing cells treated with 0.2% DMSO were used as a negative control. MTT was employed to evaluate the metabolic activity. Next, the cell viability was calculated (%), and the cytotoxic concentration (CC50) was determined with probit analysis. All samples were evaluated in triplicate in three independent experiments.
# [6] = tested on: T. cruzi strain A1 epimastigotes; test: Trypanocidal activity, T. cruzi epimastigotes, A1 strain (resazurin); type: cell-based, Trypanosoma cruzi; details: Trypanosoma cruzi, 48 h
# [7] = tested on: T. cruzi NINOA (MHOM/MX/1994/NINOA) strain epimastigotes; test: Trypanocidal activity, T. cruzi epimastigotes, NINOA strain (resazurin); type: cell-based, Trypanosoma cruzi; details: 48 h
# [8] = tested on: M. tuberculosis H37Rv (ATCC 27294); test: Anti-Mycobacterium activity, microplate Alamar Blue Assay (MABA); type: cell-based, Mycobacterium tuberculosis; details: Mycobacterium tuberculosis, H37Rv strain, minimum concentration achieving 90% inhibition
# Experimental: The reference strain H37Rv (ATCC 27294) of M. tuberculosis was utilized to assess anti-M. tuberculosis activity using the microplate Alamar Blue Assay (MABA), as previously reported. Samples underwent evaluation in triplicate independent experiments. Isoniazid, rifampicin, moxifloxacin, and linezolid were included as reference drugs, and the minimum drug concentration that achieved 90% inhibition was recorded as the minimum inhibitory concentration (MIC).
# [9] = Cytotoxicity on macrophages (MTT); type: cell-based, mouse; details: mouse, Cytotoxicity (CC50) Macrophages J774.2
# Experimental: as §2
structure (smiles),measurement,setting,value
O=C(N/N=C/c1ccc([N+](=O)[O-])o1)c1ccc(OS(=O)(=O)c2cccnc2)cc1 [Compound 1l],IC50,[1],1.26 µM
same,IC50,[2],3.26 µM
CC(C)(C)c1ccc(COc2ccc(C(=O)N/N=C/c3ccc([N+](=O)[O-])o3)cc2)cc1 [Compound 2d],IC50,[1],0.19 µM
"CNC[C@H](O)[C@@H](O)[C@H](O)[C@H](O)CO.[O]=[Sb](=[O])[OH] [Glucantime, reference compound]",IC50,[3],125 ± 1.6 µM
same,IC50,[3]; listed as glucantime,> 120 µM
same,IC50,[4],134 ± 3.1 µM
same,IC50,[4]; listed as glucantime,134 µM
same,CC50,"[5]; J774.2 macrophages, 48 h, MTT",> 200 µM
O=C(N/N=C/c1ccc([N+](=O)[O-])cc1)c1ccc(O)cc1 [Nfz-18],IC50,[3]; Leishmania mexicana,57.8 ± 2.6 µM
same,IC50,[4],> 200 µM
same,IC50,[4]; Leishmania mexicana,> 100 µM
same,IC50,[6],> 100 µM
same,IC50,[7],44.6 ± 6.3 µM
same,IC50,[7]; Trypanosoma cruzi,44.5 µM
same,MIC,[8],186 µg/mL
same,Cytotoxicity (CC50) Macrophages J774.2,[5],most toxic
same,CC50 at 48 h,[9],2.45 ± 2.9 µM
